Laboratory results taken from patent US20210063391A1, “METHODS AND SYSTEMS FOR BIOCELLULAR MARKER DETECTION AND DIAGNOSIS USING A MICROFLUIDIC PROFILING DEVICE” (The Regents of the University of Michigan, priority 2018, published 2021).

Tests used:
[1] = system: p65; assay: Inflammation signature quantification of treated PBMC lysates by microfluidic immunoblotting (p-p65); type: cell-based; conditions: PBMCs treated 2 hours
Description: (§1) An exemplary procedure for immunoblotting with a device of the present disclosure is as follows. A protein-containing sample is loaded into the wells of a gel (e.g., polyacrylamide gel) and proteins present in the sample are separated by gel electrophoresis (e.g., native gel electrophoresis, SDS-PAGE, etc.). A membrane (e.g., PVDF membrane) is placed atop the gel to allow transfer of the proteins onto the membrane. The membrane is then placed on a glass slide. A microfluidic device is placed on top of membrane, and the microfluidic channels are aligned with the protein lanes. Blocking buffer (e.g., Tween-20 and BSA) is optionally injected in each of the channels. In embodiments with a blocking step, the inlets/outlets of the channels are covered (e.g., with tape) to minimize evaporation during incubation. Antibodies are injected into the appropriate channels (e.g., different antibodies in each microchannel of a set). […]
(§2) FIGS. 2A-2B include representative graphs of inflammation signature quantification for PBMC lysates treated with LPS, Heparinase III and LPS+Heparinase III for 2 hours, according to one embodiment of the present disclosure. […]
(§3) FIGS. 3A-3B include representative graphs of inflammation signature quantification for PBMC lysates treated with Hyaluronidase (Hyal), Neuraminidase (Neu) and Spironolactone for 2 hours, according to one embodiment of the present disclosure. […]

[2] = system: Stat1/3; assay: Inflammation signature quantification of treated PBMC lysates by microfluidic immunoblotting (p-Stat1, p-Stat3); type: cell-based
Description: as §1, with “set). The inlets/outlets are covered (e.g., with tape) to minimize evaporation during incubation. Following incubation (e.g., 1 hours), the microfluidic device is removed, and the membrane is transferred to a solution of an appropriate secondary antibody (e.g., the membrane is left in this solution for 1 hour, or until the membrane is completely wet). The membrane is removed from the secondary antibody solution and washed with fresh blocking buffer (e.g., 3 minutes, 5 times each). The membrane is transferred to a developing solution (e.g., 30 minutes), and the membrane is removed and rinsed with DI water. The membrane is then allowed to dry.” for “set).”
as §2, §3

| Substance | p65 activation ([1]; 1.5 U/mL Heparinase III and/or 1 μg/ml LPS) | activation of Stat1/3 ([2]; PBMCs treated 2 hours, 1.5 U/mL Heparinase III, compared with 1 μg/ml LPS) | effect on LPS Stat1/3 response ([2]; PBMCs, 2 hours, Heparinase III 1.5 U/mL together with LPS 1 μg/ml) | p65 activation ([1]; 0.25 U/mL Neuraminidase vs 2 U/mL Hyaluronidase and 100 μM Spironolactone) | Stat1/3 activation ([2]; PBMCs treated 2 hours, 0.25 U/mL Neuraminidase vs 2 U/mL Hyaluronidase and 100 μM Spironolactone) |
| --- | --- | --- | --- | --- | --- |
| Heparinase III | increases p65 activation though similar to LPS response | leads to activation of Stat1/3, although not as much as LPS | attenuates LPS Stat1/3 response when done together |  |  |
| Neuraminidase |  |  |  | increases Stat1/3 and p65 activation as compare to Hyal and Spiro | increases Stat1/3 and p65 activation as compare to Hyal and Spiro |
